In PubChem BioAssay (NCI):
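Test compounds were applied to cells in 96-well plates for 48 hours at 5 doses. TGI: concentration producing complete growth inhibition.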

Columns and labels:
Experiment in all cases: NCI tumour cell line growth inhibition, 48 h
[1] = tested on: LXFL 529 NSCLC
[2] = tested on: DMS 114 small cell lung
[3] = tested on: SNB-78 CNS
[4] = tested on: DLD-1 colon
[5] = tested on: KM20L2 colon
[6] = tested on: M19-MEL melanoma
[7] = tested on: XF 498 CNS
[8] = tested on: DMS 273 small cell lung
[9] = tested on: HOP-18 NSCLC
[10] = tested on: RXF-631 renal
[11] = tested on: P388 leukemia
[12] = tested on: P388/ADR leukemia
[13] = tested on: SN12K1 renal

Compound	TGI [1] [µM]	TGI [2] [µM]	TGI [3] [µM]	TGI [4] [µM]	TGI [5] [µM]	TGI [6] [µM]	TGI [7] [µM]	TGI [8] [µM]	TGI [9] [µM]	TGI [10] [µM]	TGI [11] [µM]	TGI [12] [µM]	TGI [13] [µM]
N#CN=Nc1cc(Cl)c(N=NC#N)cc1Cl	> 100	> 100	> 100	> 100	> 100	> 100	> 100	> 100	–	–	–	–	–
CC(N)Cc1cccc(C(F)(F)F)c1 (stereo unspecified)	> 100	> 100	> 100	> 100	> 100	> 100	–	> 100	> 100	> 100	–	–	–
CCSC(=Nc1ccccc1)SC	> 100	> 100	> 100	> 100	> 100	> 100	> 100	> 100	> 100	> 100	–	–	–
CS(=O)(=O)c1nc(N)nc2nc[nH]c12	> 100	> 100	> 100	> 100	> 100	> 100	> 100	> 100	> 100	–	–	–	–
O=C(O)C(Cc1cccs1)NC(=O)C(F)(F)F (stereo unspecified)	–	> 100	–	> 100	> 100	> 100	–	> 100	> 100	–	> 100	> 100	> 100
CN(C)CCOc1cc2c(c3ccccc13)-c1ccccc1C2=O	–	2.65	23	4.01	5.3	2.89	3.28	1.85	8.58	–	2.7	1.95	2.04
CC1(C)S[C@@H]2[C@H](NC(=O)CCC[C@@H](N)C(=O)O)C(=O)N2[C@H]1C(=O)O	–	–	> 50	> 50	> 28	> 50	> 42	> 50	> 50	–	> 50	> 50	> 50
